Laboratory results published in patent US12678509B2, “Inhibitor of apoptosis (IAP) protein antagonists” (Sanford Burnham Prebys Medical Discovery Institute, priority 2019, dated 2026).

How the values were obtained:
MOLM 13 = test: Cell viability (CellTiter-Glo), 6-day compound treatment; format: cell-based, Human; details: Homo sapiens, MOLM-13, 144 h, read-out: MOLM 13 Viability 6 d IC50
Protocol: The compound 18a was tested in 16 different cell lines. For 6-day compound treatment 1700 cells per well were plated in a 384-well plate (Corning #781098) and incubated overnight at 37° C./5% CO2. The following day, compounds in 10-fold dilutions were added to the plates and the plates were incubated for 6 days. Afterwards, 20 μL CellTiter-Glo reagent (Promega, #G7570) was added to each well outside of the incubator and the plates were read for luminescence on a Spark® multimode microplate reader (Tecan). Data was fit in GraphPad Prism 8 to a nonlinear regression curve to determine the IC50 of the compounds. […]

SKOV-3 = test: Cell viability (CellTiter-Glo), 48 hrs; format: cell-based; details: Homo sapiens, SK-OV-3, 48 h, read-out: SKOV-3 Viability 48 h IC50
Protocol: One thousand seven hundred cells per well were plated in a 384 well plate and incubated overnight at 37° C./5% CO2. The following day, compounds in 10-fold dilutions were added to the plates and the plates returned to the incubator for 48 hrs. 48 hrs later, plates were removed to the bench and 20 μL CellTiter-Glo reagent was added to each well and the plates were read for luminescence on a Spark® multimode microplate reader (Tecan). Data were fit using PRISM to a nonlinear regression curve to determine the IC50 of the compounds.

BIR3 domain of XIAP = BIR3 domain of XIAP (Homo sapiens, UniProt P98170); test: Fluorescence polarization assay; format: binding; details: SMAC-FITC probe, Ki calculated from IC50
Sequence of BIR3 domain of XIAP (P98170 241-356 limits assumed): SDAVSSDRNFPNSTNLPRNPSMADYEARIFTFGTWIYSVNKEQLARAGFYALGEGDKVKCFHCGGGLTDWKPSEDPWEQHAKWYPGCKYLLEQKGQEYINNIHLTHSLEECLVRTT
Protocol: (§1) Binding of compounds to ML-IAP and BIR3 domain of cIAP1, cIAP2 and XIAP was determined by fluorescence polarization. Assay buffer was 100 mM KH2PO4 at pH 7.5, 50 μM ZnSO4, 1 mM TCEP (Tris(2-carboxyethyl)phosphine hydrochloride) and 50 nM SMAC-FITC probe (AbuRPF-K(5-Fam)-NH2) as described by Z. Nikolovska-Coleska et al.^9. cIAP1 and XIAP were present at 800 nM while cIAP2 and MLIAP were present at 1.5 μM. Compounds in 3-fold dilutions were added to the plates ranging from 30 μM to 1.5 nM. Assays were run in 384-well black plates read (Greiner Bio-One #784076) in an Analyst in fluorescence polarization mode with excitation at 485 nm and emission at 535 nm. Data was fit to a nonlinear regression curve in GraphPad Prism 8 to determine the IC50 values of the compounds. Ki's were then calculated from the IC50 values using equation: Ki=[I]50/([L]50/Kd+[P]0/Kd+1) formulated by Z. Nikolovska-Coleska et al.

ML-IAP = target: T1, ML-IAP (Homo sapiens, UniProt Q96CA5); test: Fluorescence polarization assay; format: binding; details: SMAC-FITC probe, Ki calculated from IC50
T1 sequence (Q96CA5 1-298): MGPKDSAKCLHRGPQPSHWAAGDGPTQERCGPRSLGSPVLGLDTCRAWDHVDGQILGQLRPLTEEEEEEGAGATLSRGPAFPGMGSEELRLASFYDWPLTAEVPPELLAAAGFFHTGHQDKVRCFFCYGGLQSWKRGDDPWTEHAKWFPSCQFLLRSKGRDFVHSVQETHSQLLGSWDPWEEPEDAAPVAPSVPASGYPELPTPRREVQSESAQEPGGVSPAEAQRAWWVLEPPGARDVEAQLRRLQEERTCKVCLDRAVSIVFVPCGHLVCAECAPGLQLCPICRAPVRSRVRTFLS
Protocol: as §1

BIR3 domain of cIAP1 = BIR3 domain of cIAP1 (Homo sapiens, UniProt Q13490); test: Fluorescence polarization assay; format: binding; details: SMAC-FITC probe, Ki calculated from IC50
Sequence of BIR3 domain of cIAP1 (Q13490 253-363 limits assumed): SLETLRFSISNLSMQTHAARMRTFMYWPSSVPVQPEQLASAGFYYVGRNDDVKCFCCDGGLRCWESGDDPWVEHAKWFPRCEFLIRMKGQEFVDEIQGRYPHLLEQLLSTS
Protocol: as §1

BIR3 domain of cIAP2 = BIR3 domain of cIAP2 (Homo sapiens, UniProt Q13489); test: Fluorescence polarization assay; format: binding; details: SMAC-FITC probe, Ki calculated from IC50
Sequence of BIR3 domain of cIAP2 (Q13489 238-349 limits assumed): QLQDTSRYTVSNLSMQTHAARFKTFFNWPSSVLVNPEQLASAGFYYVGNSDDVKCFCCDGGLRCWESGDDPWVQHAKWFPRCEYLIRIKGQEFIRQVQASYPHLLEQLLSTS
Protocol: as §1

[1] = Pharmacokinetic study in mice, snapshot PK; format: in vivo; details: female, C57BL/6J, mouse, plasma, ip, one hour after i.p. injection of 10 mg/kg
Protocol: All animal procedures were approved by the Sanford Burnham Prebys Medical Discovery Institute Institutional Animal Care and Use Committee and were performed according to the NIH guidelines for the Care and Use of Laboratory Animals. Adult female C57BL/6J were purchased from JAX laboratories and housed with free access to food and water on a 12 h light/dark cycle. Compounds were formulated in 5% DMSO, 10% Tween-80, and 85% dH2O and injected intraperitoneally (i.p.) into mice at doses of 10 mg/kg. For snapshot PK analysis, blood samples were collected retro-orbitally one hour after injection and for the time course PK study, blood samples were collected at 15 min, 30 min, 1 h, 2 h, 4 h, 6 h, 24 h time points. For the blood samples plasma was separated by centrifugation. Plasma samples were extracted with acetonitrile:water 4:1 with 0.1% formic acid containing indometacin as an internal standard. Samples were centrifuged and supernatants were diluted with acetonitrile:water and analyzed via LC-MS/MS on a Shimadzu Nexera X2 HPLC coupled to an AB Sciex 6500 QTRAP.
Plasma exposure of selected compounds at 1 h compared.
Plasma levels of parent compound determined one hour after i.p. injection of 10 mg/kg

NB-4 = test: Cell viability (CellTiter-Glo); format: cell-based, Human; details: Homo sapiens, NB-4, 72 h, read-out: NB-4 Viability 72 h IC50
Protocol: The compound 18a was tested in 16 different cell lines. For 6-day compound treatment 1700 cells per well were plated in a 384-well plate (Corning #781098) and incubated overnight at 37° C./5% CO2. […] Afterwards, 20 μL CellTiter-Glo reagent (Promega, #G7570) was added to each well outside of the incubator and the plates were read for luminescence on a Spark® multimode microplate reader (Tecan). Data was fit in GraphPad Prism 8 to a nonlinear regression curve to determine the IC50 of the compounds. […]

[2] = tested on: latently infected cell line Jurkat 2D10; test: HIV Jurkat 2D10 cells GFP+ assay (reversal of HIV latency); format: cell-based; details: Homo sapiens, Jurkat, 48 h, read-out: Jurkat 2D10 GFP+ EC50
Protocol: Several compounds (Table 5) were tested for their efficacy in the reversal of HIV latency in the latently infected cell line Jurkat 2D10. Jurkat 2D10 cells were treated with different doses of the compounds, or one of the following compounds: BV-6, SM-164, Birinapant, LCL-161, GDC-0152, AT-406 for 48 hours. Reversal of HW latency was evaluated by analyzing GFP expression using flow cytometry. Induction of GFP expression was compared to baseline GFP levels detected in the absence of treatment.

AML-SH-065 = test: Cell viability in patient derived AML samples (CellTiterGlo, 72 h); format: cell-based, human
Protocol: (§2) Patient AML samples were gathered (under IRB 13-6180) from Scripps MD Anderson, La Jolla, CA Fresh blood samples were subjected to gradient density centrifugation with Ficoll-Paque™ PLUS (17-1440-02, GE Healthcare) and peripheral blood mononuclear cells purified as per manufacturer's protocol.
(§3) 75 nL of 1000× serially diluted IAP inhibitors were spotted in triplicate onto 384-well tissue culture treated plates (Greiner) using a Labcyte Echo acoustic dispensing device. Patient-derived AML cells were maintained in mTeSR1^+1× supplements (Stemcell Technologies) and penicillin/streptomycin/L-glutamine (Omega Scientific Inc.) and Fungizone (HyClone). 25 μL of cell dilution were plated into 384-well plate containing the drugs and incubated for 72 h. Cell viability was assessed by adding 25 μL CellTiterGlo (Promega Corp.) on a Synergy 2 plate reader with Gen5 software (Biotek). % viability was calculated by normalizing luminescence to vehicle only controls (DMSO) in Microsoft Excel and plotted using GraphPad Prism 8. The IC50 values were calculated using log(inhibitor) vs. response—Variable slope (four parameters) equation. (FIG. 6)

AML-SH-075 = test: as above; format: cell-based, human
Protocol: as §2, §3

AML-SH-074 = test: as above; format: cell-based, human
Protocol: as §2, §3

Row | SMILES | IC50 (MOLM 13) [µM] | IC50 (SKOV-3) [µM] | Ki (BIR3 domain of XIAP) [µM] | Ki (ML-IAP) [µM] | Ki (BIR3 domain of cIAP1) [µM] | Ki (BIR3 domain of cIAP2) [µM] | concentration at 1 h [1] [µM] | IC50 (NB-4) [µM] | EC50 [2] [µM] | IC50 (AML-SH-065; Homo sapiens, 72 h, read-out: AML-SH-065 IC50) [µM] | AML-SH-065 Efficacy (AML-SH-065; patient derived AML sample AML-SH-065, 72 h, cell viability at max. concentration) | IC50 (AML-SH-075; Homo sapiens, 72 h, read-out: AML-SH-075 IC50) [µM] | AML-SH-075 Efficacy (AML-SH-075; patient derived AML sample AML-SH-075, 72 h, cell viability at max. concentration) | IC50 (AML-SH-074; Homo sapiens, 72 h, read-out: AML-SH-074 IC50) [µM] | AML-SH-074 Efficacy (AML-SH-074; patient derived AML sample AML-SH-074, 72 h, cell viability at max. concentration)
1 | CN[C@@H](C)C(=O)N[C@H]1CCS[C@H]2CC(C)(C)[C@@H](C(=O)N[C@H]3c4ccccc4C[C@H]3OCCCCCCO[C@@H]3Cc4ccccc4[C@@H]3NC(=O)[C@H]3N4C(=O)[C@@H](NC(=O)[C@H](C)NC)CCS[C@H]4CC3(C)C)N2C1=O [Compound 18b, (2S)-1-{[(4S,7S,9aS)-7-({(1S,2R)-2-[(6-{[(1S,2R)-1-({[(4S,7S,9aS)-8,8-Dimethyl-4-{[(2S)-2-(methylammonio)propanoyl]amino}-5-oxooctahydropyrrolo[2,1-b][1,3]thiazepin-7-yl]carbonyl}amino)-2,3-dihydro-1H-inden-2-yl]oxy}hexyl)oxy]-2,3-dihydro-1H-inden-1-yl}carbamoyl)-8,8-dimethyl-5-oxooctahydropyrrolo[2,1-b][1,3]thiazepin-4-yl]amino}-N-methyl-1-oxopropan-2-ammonium dichloride] | 0.1 to 1 | < 0.01 | ≤ 0.05 | 0.05 to 0.1 | ≤ 0.05 | 0.05 to 0.1 | 0.714 | < 0.01 | 0.001 to 0.01 |  |  |  |  |  | 
2 | CN[C@@H](C)C(=O)N[C@H]1CCS[C@H]2CC(C)(C)[C@@H](C(=O)N[C@H](CCOCC#CC#CCOCC[C@@H](NC(=O)[C@H]3N4C(=O)[C@@H](NC(=O)[C@H](C)NC)CCS[C@H]4CC3(C)C)c3ccccc3)c3ccccc3)N2C1=O [Compound 18i, (2S)-1-{[(4S,7S,9aS)-74{(1R)-3-[(6-{[(3R)-3-({[(4S,7S,9aS)-8,8-Dimethyl-4-{[(2S)-2-(methylammonio)propanoyl]amino}-5-oxooctahydropyrrolo[2,1-b][1,3]thiazepin-7-yl]carbonyl}amino)-3-phenylpropyl]oxy}hexa-2,4-diyn-1-yl)oxy]-1-phenylpropyl}carbamoyl)-8,8-dimethyl-5-oxooctahydropyrrolo[2,1-b][1,3]thiazepin-4-yl]amino}-N-methyl-1-oxopropan-2-ammonium dichloride] | 0.1 to 1 | < 0.01 | 0.05 to 0.1 | 0.05 to 0.1 | ≤ 0.05 | 0.05 to 0.1 | 1.24 | < 0.01 | 0.01 to 0.1 |  |  |  |  |  | 
3 | CN[C@@H](C)C(=O)N[C@H]1CCO[C@H]2CC(C)(C)[C@@H](C(=O)N[C@H]3c4ccccc4C[C@H]3OCC#CC#CCO[C@@H]3Cc4ccccc4[C@@H]3NC(=O)[C@H]3N4C(=O)[C@@H](NC(=O)[C@H](C)NC)CCO[C@H]4CC3(C)C)N2C1=O [Compound 18q, [(1S)-1-{[(4S,7S,9aS)-7-{[(1S,2R)-2-[(6-{[(1S,2R)-1-[(4S,7S,9aS)-8,8-Dimethyl-4-[(2S)-2-(methylazaniumyl)propanamido]-5-oxo-octahydropyrrolo[2,1-b][1,3]oxazepine-7-amido]-2,3-dihydro-1H-inden-2-yl]oxy}hexa-2,4-diyn-1-yl)oxy]-2,3-dihydro-1H-inden-1-yl]carbamoyl}-8,8-dimethyl-5-oxo-octahydropyrrolo[2,1-b][1,3]oxazepin-4-yl]carbamoyl}ethyl](methyl)azanium dichloride] | 0.01 to 0.1 | < 0.01 | ≤ 0.05 | 0.05 to 0.1 | 0.05 to 0.1 | 0.05 to 0.1 | 1.87 |  | 0.1 to 1 | 0.01 to 0.1 | I (I < 10%) | 0.01 to 0.1 | I (I < 10%) | 0.1 to 1 | I (I < 10%)
4 | CN[C@@H](C)C(=O)N[C@H]1CCS[C@H]2CC3(CC=CC3)[C@@H](C(=O)N[C@H]3c4ccccc4C[C@H]3OCC#CC#CCO[C@@H]3Cc4ccccc4[C@@H]3NC(=O)[C@H]3N4C(=O)[C@@H](NC(=O)[C@H](C)NC)CCS[C@H]4CC34CC=CC4)N2C1=O [Compound 18o] | 0.01 to 0.1 | < 0.01 | ≤ 0.05 | 0.1 to 0.2 | ≤ 0.05 | 0.05 to 0.1 | 5.18 |  | 0.001 to 0.01 |  |  |  |  |  | 
